Measured values from publication PMC4645181, “Spontaneous membrane-translocating peptides: influence of peptide self-aggregation and cargo polarity” (Scientific Reports, 2015).
“And” between values parts separate entries of the source, which are not always exact repeats. Equal values may be shown once. Where a SMILES comes first, the peptide text is derived from it. The star is where a group is joined. X2 = CN(C)c1ccc2c(-c3ccc(N4C(=O)CC(*)C4=O)cc3C(=O)[O-])c3ccc(=[N+](C)C)cc-3oc2c1; X1 = CCOC(=O)c1cc2cc3c(cc2oc1=O)N(CC(=O)NCCN1C(=O)CC(*)C1=O)C(C)(C)CC3C

Experiments:
[1] = Critical Micelle Concentration by pyrene 1:3 ratio method; format: physicochemical; conditions: water solutions, 25 °C, 5 × 10^−7 μM pyrene, excitation 335 nm, I1 373 nm / I3 385 nm, 0.5-100 μM peptide, center of Boltzmann sigmoid fit
Experimental: All the peptide solutions were always freshly prepared and dye-labeled peptides were quantified by UV-Vis absorbance. Unlabeled peptides were quantified by amino acidic digestion obtained by the mineralization of a known amount of peptide (5–50 μg) dissolved in 200–500 μl of HCl 6 M, with the following conditions: temperature: 170 °C; time: 20 minutes. Finally, derivatized amino acids were detected by RP-HPLC (Jupiter 4 μm Proteo 90 Å column (250 × 4.6 mm; Phenomenex) with these solvents: water:TFA 100:0.01 v/v (eluent A)/acetonitrile:water:TFA 95:5:0.01 v/v (eluent B), flux 1 ml/min, and their identity was confirmed by electrospray mass spectroscopy. CMC values of peptide and labeled-peptide systems were then determined by the pyrene 1:3 ratio method. Fluorescence emission spectra at 25 °C of unlabeled and labeled peptide water solutions containing 5 × 10^−7 μM pyrene were recorded using an excitation wavelength of 335 nm. The intensities I1 and I3 were measured at the wavelengths corresponding to the first and third vibronic bands of pyrene (373 nm, emission range: 368–378 nm, and 385 nm, emission range: 380–390 nm, respectively). According to literature, the plot of the pyrene 1:3 ratio index as a function of the concentration of the surfactant can be described by a decreasing sigmoid of the Boltzmann type and indicates the transition from the monomeric to the aggregated form of the peptide. Experimental raw data were fitted using the OriginPro8 software, and the center of the sigmoid is identified as the characteristic CMC.

CHO-K1 cells [2] = assay: WST-8 Cell Viability Assay; format: cell-based, Chinese Hamster
Experimental: Cytotoxicity of unlabeled peptides and dye-labeled peptides was evaluated by the WST-8 assay. CHO-K1 cell proliferation was evaluated by plating 5 × 10^3 cells per well in 96-well plates. After 24 hours in serum-containing DMEM-F12 medium, the cells were incubated with a serum-free DMEM-F12 solution of unlabeled or dye-labeled peptides for 2 hours at 37 °C. After the incubation, the medium was removed, cells were washed with PBS 1X and incubated for 2 hours at 37 °C with 100 μl of a 10%-solution of WST-8 dissolved in serum-containing DMEM-F12. Absorbance at 450 nm was measured using a multiplate reader (Microplate Reader, GloMax®-Discover and Explorer Systems, Promega). Cell viability was quantitatively determined by comparing peptide-treated cells with untreated cells (as a reference of 100% viability) and cells treated with dimethyl sulfoxide (DMSO) 20% v/v. Reported data represent the average of three independent experiments, in which three wells for each concentration were measured. Error bars represent the standard errors.

CHO-K1 cells [3] = assay: Cell uptake / translocation by confocal fluorescence microscopy; format: cell-based, Chinese Hamster; conditions: all concentrations tested (0.5-10 μM), serum-free medium, peptide from water stock, 20 min at 37 °C
Experimental: Homogeneous peptide solutions used for translocation experiments were always freshly prepared. Purified dye-labeled peptides were pre-dissolved in 100–200 μl of water and sonicated for 15 minutes at 25 °C. Then they were quantified by UV-Vis absorbance (concentration ranging between 100 and 200 μM; for ATTO 425 Maleimide: ε436(water) = 45000 cm^−1M^−1, for TAMRA: ε543(water) = 80000 cm^−1M^−1). An appropriate amount from this stock water-solution was diluted in 200–300 μl of serum-free DMEM F-12 growth medium and then administered to cells. Ionic strength was adjusted to physiological values adding the required amount of 10X PBS buffer.
Chinese Hamster Ovary (CHO-K1) and PgsA-745 cells were purchased from ATCC (reference numbers: CCL-61 and CRL-2242, respectively) and grown in DMEM F-12 medium supplemented with 10% of Fetal Bovine Serum (FBS) at 37 °C with 5% CO2, according to manufacturer’s instructions. […]
Confocal imaging experiments were performed with a Leica TCS SP5 SMD inverted confocal microscope (Leica Microsystems) interfaced with a diode laser (Picoquant) for excitation at 405 nm. […] All images and videos collected were analyzed by ImageJ software version 1.440 (NIH Image; http://rsbweb.nih.gov/ij/). […] RICS correlation function was calculated by the SimFCS software, developed at the Laboratory for Fluorescence Dynamics (www.lfd.uci.edu). […]

[4] = Dynamic Light Scattering of peptide aggregates; format: physicochemical; conditions: water solutions at 100 μM (above CMC), 25 °C, scattering angle 90°, average of five consecutive measurements
Experimental: DLS measurements were performed at 25 °C in a 50-μL quartz cuvette on a Zetasizernano ZS DLS (Malvern Instrument) following the manufacturer’s instructions. Water solutions of labeled-peptide at 100 μM were analyzed with a single scattering angle of 90°. Each value reported is the average of five consecutive measurements.

[5] = UV absorption of peptide in water after addition from DMSO stock (precipitation); format: physicochemical; conditions: 2μM in water, added directly from DMSO stock, UV absorption versus addition from water solution; consistent with a precipitate
Experimental: Fig S5: UV absorption spectra of TP2 at 2μM concentration in water, measured upon addition of the peptide directly from DMSO stock solution (blue trace) or from a water solution (black trace). Only this latter procedure yields the expected absorption spectrum (indicated by the dashed black line). […] This in turn is consistent with the formation of a stabilized phase that is not diffusing in solution, but likely under the form of a precipitate.

peptide apparently lost upon direct addition from DMSO to water [5] | Compound | Critical Micelle Concentration (CMC) [1] | cell viability (CHO-K1 cells [2]; 20 µM) | cell viability (CHO-K1 cells [2]; 30 µM) | uptake mechanism (confocal imaging) (CHO-K1 cells [3]) | hydrodynamic radius (RH) from DLS [4]
 | CN(C)c1ccc2c(-c3ccc(N4C(=O)C=CC4=O)cc3C(=O)[O-])c3ccc(N(C)C)cc3[o+]c2c1 [TAMRA, Tetramethylrhodamine-5-maleimide] | ~80 µM and 80 ± 14 µM |  |  |  | 
 | CCOC(=O)c1cc2cc3c(cc2oc1=O)N(CC(=O)NCCN1C(=O)CC(SC[C@H](NC(=O)CNC(=O)[C@H](CCCNC(=N)N)NC(=O)[C@H](CC(C)C)NC(=O)[C@H](CC(C)C)NC(=O)[C@H](CCCNC(=N)N)NC(=O)[C@H](CC(C)C)NC(=O)[C@H](Cc2ccc(O)cc2)NC(=O)[C@@H](NC(=O)[C@H](CC(C)C)NC(=O)[C@@H]2CCCN2)[C@@H](C)CC)C(=O)O)C1=O)C(C)(C)CC3C (stereo partly drawn) [TM9-ATTO 425] (H-PLIYLRLLRGC(X1)-OH) |  | 60% | 40% |  | 
 | CC[C@H](C)[C@H](NC(=O)[C@H](CC(C)C)NC(=O)[C@@H]1CCCN1)C(=O)N[C@@H](Cc1ccc(O)cc1)C(=O)N[C@@H](CC(C)C)C(=O)N[C@@H](CCCNC(=N)N)C(=O)N[C@@H](CC(C)C)C(=O)N[C@@H](CC(C)C)C(=O)N[C@@H](CCCNC(=N)N)C(=O)NCC(=O)N[C@@H](CSC1CC(=O)N(c2ccc(-c3c4ccc(=[N+](C)C)cc-4oc4cc(N(C)C)ccc34)c(C(=O)[O-])c2)C1=O)C(=O)O (stereo partly drawn) [TM9-TAMRA] (H-PLIYLRLLRGC(X2)-OH; N-terminus and C-terminus assumed) | 3.8 ± 0.5 µM |  |  | only endocytosis is present | 135 ± 14 nm
~60% | PLIYLRLLR-G-QF [TP2] | 1.0 ± 0.2 µM |  |  |  | 163 ± 6 nm
